{
  "source": "ChEMBL document CHEMBL2040840",
  "about": "“New quinoline-5,8-dione and hydroxynaphthoquinone derivatives inhibit a chloroquine resistant Plasmodium falciparum strain” (Eur J Med Chem, 2012)",
  "key": {"Plasmodium falciparum [1]": {"system": "Plasmodium falciparum", "test": "Antiplasmodial activity against Plasmodium falciparum NF54 infected in human erythrocytes assessed as decrease in parasitemia measured on day 4 post-treatment by geimsa staining (reference value: 3.28 +/- 0.11%)", "type": "functional", "set-up": "scale not given: the % may be the effect or the level left"}, "Plasmodium falciparum [2]": {"system": "Plasmodium falciparum", "test": "Antiplasmodial activity against Plasmodium falciparum NF54 infected in human erythrocytes assessed as decrease in parasitemia measured on day 3 post-treatment by geimsa staining (reference value: 2.18 +/- 0.17%)", "type": "functional", "set-up": "scale not given: the % may be the effect or the level left"}, "Plasmodium falciparum [3]": {"system": "Plasmodium falciparum", "test": "Antiplasmodial activity against Plasmodium falciparum NF54 infected in human erythrocytes assessed as decrease in parasitemia measured on day 1 post-treatment by geimsa staining (reference value: 0.65 +/- 02%)", "type": "functional", "set-up": "scale not given: the % may be the effect or the level left"}, "Plasmodium falciparum [4]": {"system": "Plasmodium falciparum", "test": "Antiplasmodial activity against Plasmodium falciparum NF54 infected in human erythrocytes after 72 hrs by geimsa staining", "type": "functional, organism-based", "conditions": "for IC50: NF54, 72 h"}, "Plasmodium falciparum [5]": {"system": "Plasmodium falciparum", "test": "Antiplasmodial activity against Plasmodium falciparum NF54 infected in human erythrocytes assessed as decrease in parasitemia measured on day 2 post-treatment by geimsa staining (reference value: 1.1 +/- 0.09%)", "type": "functional", "set-up": "scale not given: the % may be the effect or the level left"}},
  "note": "Activity calls are given as the source filed them. The rule behind the calls is not given here.",
  "data": [
    {"smiles": "Cc1ccc2c(n1)C(=O)C(Br)=C(N1CCN(c3ccccc3)CC1)C2=O", "values": [
      {"measurement": "Activity", "setting": "Plasmodium falciparum [1]", "value": 0, "unit": "%"},
      {"measurement": "Activity", "setting": "Plasmodium falciparum [2]", "value": 0, "unit": "%"},
      {"measurement": "Activity", "setting": "Plasmodium falciparum [3]", "value": 0.46, "unit": "%"},
      {"measurement": "IC50", "setting": "Plasmodium falciparum [4]", "value": 2.21, "unit": "µM"},
      {"measurement": "Activity", "setting": "Plasmodium falciparum [5]", "value": 0.29, "unit": "%"}
    ]},
    {"smiles": "Cc1ccc2c(n1)C(=O)C=C(N1CCN(c3ccccc3)CC1)C2=O", "values": [
      {"measurement": "Activity", "setting": "Plasmodium falciparum [1]", "value": 0, "unit": "%"},
      {"measurement": "Activity", "setting": "Plasmodium falciparum [2]", "value": 0.04, "unit": "%"},
      {"measurement": "Activity", "setting": "Plasmodium falciparum [3]", "value": 0.43, "unit": "%"},
      {"measurement": "IC50", "setting": "Plasmodium falciparum [4]", "value": 3.96, "unit": "µM"},
      {"measurement": "Activity", "setting": "Plasmodium falciparum [5]", "value": 0.25, "unit": "%"}
    ]},
    {"smiles": "CCCc1ccc(-c2ccc(NC3=C(Br)C(=O)c4nc(C)ccc4C3=O)cc2)cc1", "values": [
      {"measurement": "Activity", "setting": "Plasmodium falciparum [1]", "value": 0, "unit": "%"},
      {"measurement": "Activity", "setting": "Plasmodium falciparum [2]", "value": 0.05, "unit": "%"},
      {"measurement": "Activity", "setting": "Plasmodium falciparum [3]", "value": 0.42, "unit": "%"},
      {"measurement": "IC50", "setting": "Plasmodium falciparum [4]", "value": 4.37, "unit": "µM"},
      {"measurement": "Activity", "setting": "Plasmodium falciparum [5]", "value": 0.19, "unit": "%"}
    ]},
    {"smiles": "Oc1c(Br)cc(Br)c2cccnc12", "values": [
      {"measurement": "Activity", "setting": "Plasmodium falciparum [4]", "value": "inactive"}
    ]},
    {"smiles": "CCCc1ccc(-c2ccc(NC3=C(Br)C(=O)c4ncccc4C3=O)cc2)cc1", "values": [
      {"measurement": "IC50", "setting": "Plasmodium falciparum [4]", "value": 3, "unit": "µM"}
    ]},
    {"smiles": "Cc1ccc2c(n1)C(=O)C(Br)=C(NN1CCN(NC3=C(Br)C(=O)c4nc(C)ccc4C3=O)CC1)C2=O", "values": [
      {"measurement": "Activity", "setting": "Plasmodium falciparum [1]", "value": 0, "unit": "%"},
      {"measurement": "Activity", "setting": "Plasmodium falciparum [2]", "value": 0.05, "unit": "%"},
      {"measurement": "Activity", "setting": "Plasmodium falciparum [3]", "value": 0.65, "unit": "%"},
      {"measurement": "IC50", "setting": "Plasmodium falciparum [4]", "value": 3.93, "unit": "µM"},
      {"measurement": "Activity", "setting": "Plasmodium falciparum [5]", "value": 0.49, "unit": "%"}
    ]},
    {"smiles": "Cc1ccc2c(n1)C(=O)C(Br)=C(NN1CCN(N)CC1)C2=O", "values": [
      {"measurement": "Activity", "setting": "Plasmodium falciparum [1]", "value": 0, "unit": "%"},
      {"measurement": "Activity", "setting": "Plasmodium falciparum [2]", "value": 0.07, "unit": "%"},
      {"measurement": "Activity", "setting": "Plasmodium falciparum [3]", "value": 0.48, "unit": "%"},
      {"measurement": "IC50", "setting": "Plasmodium falciparum [4]", "value": 4.1, "unit": "µM"},
      {"measurement": "Activity", "setting": "Plasmodium falciparum [5]", "value": 0.28, "unit": "%"}
    ]},
    {"smiles": "O=C1C(O)=C(N2CCN(c3ccccc3)CC2)C(=O)c2ccccc21", "values": [
      {"measurement": "Activity", "setting": "Plasmodium falciparum [1]", "value": 0, "unit": "%"},
      {"measurement": "Activity", "setting": "Plasmodium falciparum [2]", "value": 0.03, "unit": "%"},
      {"measurement": "Activity", "setting": "Plasmodium falciparum [3]", "value": 0.5, "unit": "%"},
      {"measurement": "IC50", "setting": "Plasmodium falciparum [4]", "value": 3.89, "unit": "µM"},
      {"measurement": "Activity", "setting": "Plasmodium falciparum [5]", "value": 0.26, "unit": "%"}
    ]},
    {"smiles": "CCN(CC)CCCC(C)Nc1ccnc2cc(Cl)ccc12", "note": "(configuration not stated) [CHLOROQUINE]", "values": [
      {"measurement": "Activity", "setting": "Plasmodium falciparum [1]", "value": 0, "unit": "%"},
      {"measurement": "Activity", "setting": "Plasmodium falciparum [2]", "value": 0, "unit": "%"},
      {"measurement": "Activity", "setting": "Plasmodium falciparum [3]", "value": 0.06, "unit": "%"},
      {"measurement": "Activity", "setting": "Plasmodium falciparum [5]", "value": 0, "unit": "%"}
    ]},
    {"smiles": "Cc1ccc2c(Br)cc(Br)c(O)c2n1", "note": "[BROQUINALDOL]", "values": [
      {"measurement": "IC50", "setting": "Plasmodium falciparum [4]", "value": 7.54, "unit": "µM"}
    ]}
  ]
}
